According to ChEMBL document CHEMBL1201862, “PubChem BioAssay data set” (2004):
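Assay format: 96-well plates, 48-hour exposure. GI50 = concentration required for 50% inhibition of growth.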 Activity calls are given as the source filed them. No stated cut-off is given here; in the data, active = GI50 up to about 1.1 µM and inactive = higher.

Tests used:
Assay in all cases: NCI-60 cell line screen, 48 h
[1] = test system: HCT-116
[2] = test system: HL-60
[3] = test system: HOP-92
[4] = test system: HT-29
[5] = test system: Hs-578T
[6] = test system: IGROV-1
[7] = test system: MCF7
[8] = test system: Malme-3M
[9] = test system: OVCAR-3
[10] = test system: OVCAR-4
[11] = test system: SF-268
[12] = test system: SF-295
[13] = test system: SF-539
[14] = test system: SK-MEL-28
[15] = test system: SK-MEL-2
[16] = test system: SNB-75
[17] = test system: TK-10
[18] = test system: UO-31
[19] = test system: K562

Measured: GI50

CCOC(=O)/C=C\c1c(Cl)n(-c2ccccc2)c(=O)n(-c2ccccc2)c1=O
inactive: [1] 23.8 µM | [2] 4.63 µM | [3] 15.8 µM | [4] 19 µM | [5] 27.3 µM | [6] 17.6 µM | [7] 22.6 µM | [8] 24.5 µM | [9] 19.3 µM | [10] 30 µM | [11] 20.7 µM | [12] 21.9 µM | [13] 17.2 µM | [14] 18.9 µM | [15] 17.7 µM | [16] 14.9 µM | [17] 18.1 µM | [18] 18.8 µM

C[C@@H]1CC[C@@]2(C)C(C(=O)O)=CCCC2[C@@]1(C)CC(=O)c1ccoc1 (stereo not given in full)
inactive: [1] > 25 µM | [2] > 25 µM | [3] > 25 µM | [4] > 25 µM | [5] > 25 µM | [6] > 25 µM | [7] > 25 µM | [9] > 25 µM | [10] > 25 µM | [11] > 25 µM | [12] > 25 µM | [13] > 25 µM | [14] > 25 µM | [15] > 25 µM | [16] > 25 µM | [17] > 25 µM | [18] > 25 µM

C[C@@]12[C@H]3CC[C@@H]1[C@H](O)C(=O)N2CC3
inactive: [2] > 100 µM | [3] > 100 µM | [4] > 100 µM | [5] > 100 µM | [6] > 100 µM | [19] > 100 µM | [7] > 100 µM | [8] > 100 µM | [9] > 100 µM | [10] > 100 µM | [11] > 100 µM | [12] > 100 µM | [13] > 100 µM | [14] > 100 µM | [15] > 100 µM | [16] > 100 µM | [17] > 100 µM | [18] > 100 µM

N#CC1(C#N)C(C#N)(C#N)C1(C#N)C(N)=O
inactive: [1] > 100 µM | [2] > 100 µM | [3] > 100 µM | [4] > 100 µM | [5] > 100 µM | [6] > 100 µM | [19] > 100 µM | [7] > 100 µM | [8] > 100 µM | [10] > 100 µM | [11] > 100 µM | [12] > 100 µM | [14] > 100 µM | [15] > 100 µM | [17] > 100 µM | [18] > 100 µM

COc1cc2c(cc1O)C1Cc3ccc(OC)c(O)c3C[N+]1(C)CC2 (stereo not given)
inactive: [1] > 100 µM | [2] > 100 µM | [3] > 100 µM | [4] > 100 µM | [5] > 100 µM | [6] > 100 µM | [19] 58.3 µM | [7] > 100 µM | [8] > 100 µM | [10] > 100 µM | [11] > 100 µM | [12] > 100 µM | [13] > 100 µM | [14] > 100 µM | [15] > 100 µM | [16] > 100 µM | [17] > 100 µM | [18] > 100 µM

Fc1cc2nc3n(c2cc1F)C(c1c(Cl)cccc1Cl)SC3 (stereo not given)
inactive: [1] 12.6 µM | [2] 15.5 µM | [3] 13.6 µM | [4] 16.2 µM | [5] 18.4 µM | [6] 18.5 µM | [7] 16.5 µM | [8] 17.6 µM | [9] 13 µM | [10] 15.9 µM | [11] 16.5 µM | [12] 13.4 µM | [13] 20.5 µM | [14] 14 µM | [15] 17.1 µM | [16] 13.7 µM | [17] 18.2 µM | [18] 15.8 µM

N#CCCN(CCC#N)c1ccc(/C=C2\N=C(c3ccccc3)N(NC(=O)c3ccncc3)C2=O)cc1
inactive: [1] > 100 µM | [2] 36.7 µM | [3] > 100 µM | [4] > 100 µM | [5] > 100 µM | [6] > 100 µM | [19] 49.2 µM | [7] > 100 µM | [9] > 100 µM | [10] > 100 µM | [11] > 100 µM | [12] > 100 µM | [13] > 100 µM | [14] > 100 µM | [15] > 100 µM | [17] > 100 µM | [18] > 100 µM

COC(=O)CCCc1ccc2c(c1)CC1(C2)Cc2cc3c(cc2C1)CCCC3
inactive: [1] 3.8 µM | [2] 12.4 µM | [3] 26.1 µM | [4] 29.6 µM | [5] 29.9 µM | [6] 44.9 µM | [19] 22.9 µM | [7] 44.6 µM | [8] 37.6 µM | [9] 27.5 µM | [10] 42.5 µM | [12] 45.7 µM | [13] 37.8 µM | [15] 22.6 µM | [17] > 100 µM | [18] 86.7 µM

C=C(C)[C@H]1C=C[C@@H](OC(C)=O)[C@@]2(COC(C)=O)[C@H](OC(=O)CCC)[C@H]3[C@@H](OC(C)=O)[C@@H](C)C[C@]3(O)C(=O)[C@@](C)(OC(C)=O)[C@H]12
inactive: [1] 37.6 µM | [2] 33.5 µM | [3] 3.53 µM | [4] 38.7 µM | [5] 43.1 µM | [6] 32.1 µM | [19] 31.6 µM | [7] 42.3 µM | [8] 45.3 µM | [10] 35.6 µM | [11] 67 µM | [14] 80 µM | [15] 87.3 µM | [16] 46 µM | [17] 32.2 µM | [18] 33.4 µM

COc1ccc2nc3cccc([N+](=O)[O-])c3c(NCCC(=O)O)c2c1
inactive: [1] > 10 µM | [2] > 10 µM | [3] > 10 µM | [4] > 10 µM | [5] 9.14 µM | [6] > 10 µM | [19] > 10 µM | [7] 5.78 µM | [8] 4.51 µM | [9] > 10 µM | [10] > 10 µM | [11] > 10 µM | [12] > 10 µM | [13] > 10 µM | [14] > 10 µM | [15] > 10 µM | [16] > 10 µM | [17] > 10 µM

Cc1nc2[nH]ccn2c(=O)c1CCCl
inactive: [1] 17 µM | [2] 25.4 µM | [3] 21.4 µM | [4] 33.7 µM | [5] 37.6 µM | [6] 26.2 µM | [19] 22.9 µM | [7] 68.1 µM | [8] 25.6 µM | [9] 25.2 µM | [10] 20.1 µM | [11] 36.4 µM | [12] 31.6 µM | [13] 17.1 µM | [14] 30.1 µM | [16] 39.3 µM | [17] 31 µM | [18] 33 µM
